Results: patent US10689327B2, “Prodrug amino acid derivative” (TAISHO PHARMACEUTICALS CO., LTD., priority 2016, dated 2020)
Where a name gives a salt, the structure may show the parent alone.

Assay: Stability test in solution (pH 1.2 and pH 6.5)
Type: physicochemical
Conditions: 1 hour; for Compound's percent residue (%) pH 6.5: 20 mM phosphate buffer pH 6.5, 37° C.; for Compound's percent residue (%) pH 1.2: hydrochloric acid solution pH 1.2, 37° C.
Method: Test 2: Stability Test in Solution
A test to determine the stability of Inventive Compounds (I-A) or (I) in a hydrochloric acid solution (pH 1.2) and 20 mM phosphate buffer (pH 6.5) was conducted in accordance with the following method.
A compound was dissolved in a hydrochloric acid solution (pH 1.2) containing hydrochloric acid and sodium chloride or a 20 mM phosphate buffer (pH 6.5) containing disodium hydrogenphosphate, sodium dihydrogenphosphate and sodium chloride to prepare a solution with a concentration of about 50 ng/mL (near the saturated concentration when the compound was not dissolved). The solution was incubated at 37° C. for 1 hour and the compound's concentration before and after the incubation was quantified by high-performance liquid chromatography to calculate the percent residue of the compound. Compounds having low solubility were assessed as being not applicable.
The percent residues of representative compounds in the hydrochloric acid solution (pH 1.2) and the 20 mM phosphate buffer (pH 6.5) are shown in the following Table 2.

Structure (SMILES) | Compound's percent residue (%) pH 6.5 [%] | Compound's percent residue (%) pH 1.2 [%]
CC(C)[C@@H]1CC[C@@H](C)C[C@H]1OC(=O)O[C@H](C)OC(=O)[C@@]1(N)[C@H]2[C@@H](C[C@H]1OCc1ccc(F)cc1)[C@]2(F)C(=O)O [Example 1, (1R,2R,3R,5R,6R)-2-amino-6-fluoro-3-[(4-fluorophenyl)methoxy]-2-({(1R)-1-[({[(1R,2S,5R)-5-methyl-2-(propan-2-yl)cyclohexyl]oxy}carbonyl)oxy]ethoxy}carbonyl)bicyclo[3.1.0]hexane-6-carboxylic acid] | 103 | 109
CC(C)[C@@H]1CC[C@@H](C)C[C@H]1OC(=O)O[C@@H](C)OC(=O)[C@@]1(N)[C@H]2[C@@H](C[C@H]1OCc1ccc(F)cc1)[C@]2(F)C(=O)O [Example 2, (1R,2R,3R,5R,6R)-2-Amino-6-fluoro-3-[(4-fluorophenyl)methoxy]-2-({(1S)-1-[({[(1R,2S,5R)-5-methyl-2-(propan-2-yl)cyclohexyl]oxy}carbonyl)oxy]ethoxy}carbonyl)bicyclo[3.1.0]hexane-6-carboxylic acid] | 104 | 
C[C@H](OC(=O)C12CC3CC(CC(C3)C1)C2)OC(=O)[C@@]1(N)[C@H]2[C@@H](C[C@H]1OCc1ccc(F)cc1)[C@]2(F)C(=O)O [Example 3, (1R,2R,3R,5R,6R)-2-Amino-6-fluoro-3-[(4-fluorophenyl)methoxy]-2-({(1R)-1-[(tricyclo[3.3.1.1^3,7]decane-1-carbonyl)oxy]ethoxy}carbonyl)bicyclo[3.1.0]hexane-6-carboxylic acid] |  | 93
C[C@@H](OC(=O)C12CC3CC(CC(C3)C1)C2)OC(=O)[C@@]1(N)[C@H]2[C@@H](C[C@H]1OCc1ccc(F)cc1)[C@]2(F)C(=O)O [Example 4, (1R,2R,3R,5R,6R)-2-Amino-6-fluoro-3-[(4-fluorophenyl)methoxy]-2-({(1S)-1-[(tricyclo[3.3.1.1^3,7]decane-1-carbonyl)oxy]ethoxy}carbonyl)bicyclo[3.1.0]hexane-6-carboxylic acid] | 98 | 98
CC(OC(=O)OC1CCCCC1)OC(=O)[C@@]1(N)[C@H]2[C@@H](C[C@H]1OCc1ccc(F)cc1)[C@]2(F)C(=O)O (stereo partly drawn) [Example 5, (1R,2R,3R,5R,6R)-2-Amino-2-[(1-{[(cyclohexyloxy)carbonyl]oxy}ethoxy)carbonyl]-6-fluoro-3-[(4-fluorophenyl)methoxy]bicyclo[3.1.0]hexane-6-carboxylic acid] | 98 | 100
CC(C)[C@H](N)C(=O)OCOC(=O)[C@@]1(N)[C@H]2[C@@H](C[C@H]1OCc1ccc(F)cc1)[C@]2(F)C(=O)O [Example 6, (1R,2R,3R,5R,6R)-2-Amino-6-fluoro-3-[(4-fluorophenyl)methoxy]-2-{[(L-valyloxy)methoxy]carbonyl}bicyclo[3.1.0]hexane-6-carboxylic acid dihydrochloride] | 11 | 99
N[C@]1(C(=O)OCOC(=O)C23CC4CC(CC(C4)C2)C3)[C@H]2[C@@H](C[C@H]1OCc1ccc(F)cc1)[C@]2(F)C(=O)O [Example 7, (1R,2R,3R,5R,6R)-2-Amino-6-fluoro-3-[(4-fluorophenyl)methoxy]-2-({[(tricyclo[3.3.1.1^3,7]decane-1-carbonyl)oxy]methoxy}carbonyl)bicyclo[3.1.0]hexane-6-carboxylic acid] | 106 | 101
CC(C)[C@@H]1CC[C@@H](C)C[C@H]1OC(=O)O[C@H](C)OC(=O)[C@@]1(N)[C@H]2[C@@H](C[C@H]1OCc1ccc(F)c(F)c1)[C@]2(F)C(=O)O [Example 8, (1R,2R,3R,5R,6R)-2-amino-3-[(3,4-difluorophenyl)methoxy]-6-fluoro-2-({(1R)-1-[({[(1R,2S,5R)-5-methyl-2-(propan-2-yl)cyclohexyl]oxy}carbonyl)oxy]ethoxy}carbonyl)bicyclo[3.1.0]hexane-6-carboxylic acid] |  | 97
CC(C)[C@@H]1CC[C@@H](C)C[C@H]1OC(=O)O[C@@H](C)OC(=O)[C@@]1(N)[C@H]2[C@@H](C[C@H]1OCc1ccc(F)c(F)c1)[C@]2(F)C(=O)O [Example 9, (1R,2R,3R,5R,6R)-2-Amino-3-[(3,4-difluorophenyl)methoxy]-6-fluoro-2-({(1S)-1-[({[(1R,2S,5R)-5-methyl-2-(propan-2-yl)cyclohexyl]oxy}carbonyl)oxy]ethoxy}carbonyl)bicyclo[3.1.0]hexane-6-carboxylic acid] | 116 | 115
C[C@H](OC(=O)C12CC3CC(CC(C3)C1)C2)OC(=O)[C@@]1(N)[C@H]2[C@@H](C[C@H]1OCc1ccc(F)c(F)c1)[C@]2(F)C(=O)O [Example 10, (1R,2R,3R,5R,6R)-2-Amino-3-[(3,4-difluorophenyl)methoxy]-6-fluoro-2-({(1R)-1-[(tricyclo[3.3.1.1^3,7]decane-1-carbonyl)oxy]ethoxy}carbonyl)bicyclo[3.1.0]hexane-6-carboxylic acid] | 107 | 104
C[C@@H](OC(=O)C12CC3CC(CC(C3)C1)C2)OC(=O)[C@@]1(N)[C@H]2[C@@H](C[C@H]1OCc1ccc(F)c(F)c1)[C@]2(F)C(=O)O [Example 11, (1R,2R,3R,5R,6R)-2-Amino-3-[(3,4-difluorophenyl)methoxy]-6-fluoro-2-({(1S)-1-[(tricyclo[3.3.1.1^3,7]decane-1-carbonyl)oxy]ethoxy}carbonyl)bicyclo[3.1.0]hexane-6-carboxylic acid] | 95 | 96
N[C@]1(C(=O)OCOC(=O)C23CC4CC(CC(C4)C2)C3)[C@H]2[C@@H](C[C@H]1OCc1ccc(F)c(F)c1)[C@]2(F)C(=O)O [Example 12, (1R,2R,3R,5R,6R)-2-Amino-3-[(3,4-difluorophenyl)methoxy]-6-fluoro-2-({[(tricyclo[3.3.1.1^3,7]decane-1-carbonyl)oxy]methoxy}carbonyl)bicyclo[3.1.0]hexane-6-carboxylic acid] | 102 | 101
CCCO[C@@H]1C[C@@H]2[C@H]([C@]1(N)C(=O)O[C@@H](C)OC(=O)O[C@@H]1C[C@H](C)CC[C@H]1C(C)C)[C@@]2(F)C(=O)O [Example 13, (1R,2R,3R,5R,6R)-2-amino-6-fluoro-2-({(1R)-1-[({[(1R,2S,5R)-5-methyl-2-(propan-2-yl)cyclohexyl]oxy}carbonyl)oxy]ethoxy}carbonyl)-3-propoxybicyclo[3.1.0]hexane-6-carboxylic acid] | 98 | 98
CCCO[C@@H]1C[C@@H]2[C@H]([C@]1(N)C(=O)O[C@H](C)OC(=O)O[C@@H]1C[C@H](C)CC[C@H]1C(C)C)[C@@]2(F)C(=O)O [Example 14, (1R,2R,3R,5R,6R)-2-Amino-6-fluoro-2-({(1S)-1-[({[(1R,2S,5R)-5-methyl-2-(propan-2-yl)cyclohexyl]oxy}carbonyl)oxy]ethoxy}carbonyl)-3-propoxybicyclo[3.1.0]hexane-6-carboxylic acid] | 97 | 97

Results, then the compound that gave them:

Compound's percent residue (%) pH 6.5 [%] | Compound's percent residue (%) pH 1.2 [%] | Structure (SMILES)
103 | 100 | CCCO[C@@H]1C[C@@H]2[C@H]([C@]1(N)C(=O)OC(C)OC(=O)O[C@H]1C[C@@H](C)CC[C@@H]1C(C)C)[C@@]2(F)C(=O)O (single isomer, unassigned) [Example 15-B]
97 | 104 | CC(OC(=O)O[C@@H]1C[C@@H]2CC[C@@]1(C)C2(C)C)OC(=O)[C@@]1(N)[C@H]2[C@@H](C[C@H]1OCc1ccc(F)cc1)[C@]2(F)C(=O)O (single isomer, unassigned) [Example 17-A]
103 | 107 | CCCO[C@@H]1C[C@@H]2[C@H]([C@]1(N)C(=O)OC(C)OC(=O)O[C@@H]1C[C@@H]3CC[C@@]1(C)C3(C)C)[C@@]2(F)C(=O)O (single isomer, unassigned) [Example 18-A]
106 | 100 | CC(OC(=O)O[C@H]1C[C@H]2CC[C@]1(C)C2(C)C)OC(=O)[C@@]1(N)[C@H]2[C@@H](C[C@H]1OCc1ccc(F)cc1)[C@]2(F)C(=O)O (single isomer, unassigned) [Example 19-B]
104 | 104 | CCCO[C@@H]1C[C@@H]2[C@H]([C@]1(N)C(=O)OC(C)OC(=O)O[C@H]1C[C@@H](C)CC[C@@H]1C(C)C)[C@@]2(F)C(=O)O (stereo partly drawn) [Example 15-A, (1R,2R,3R,5R,6R)-2-Amino-6-fluoro-2-({1-[({[(1S,2R,5S)-5-methyl-2-(propan-2-yl)cyclohexyl]oxy}carbonyl)oxy]ethoxy}carbonyl)-3-propoxybicyclo[3.1.0]hexane-6-carboxylic acid]
93 | 101 | CC(OC(=O)O[C@H]1C[C@@H](C)CC[C@@H]1C(C)C)OC(=O)[C@@]1(N)[C@H]2[C@@H](C[C@H]1OCc1ccc(F)cc1)[C@]2(F)C(=O)O (stereo partly drawn) [Example 16-B, (1R,2R,3R,5R,6R)-2-Amino-6-fluoro-3-[(4-fluorophenyl)methoxy]-2-({1-[({[(1S,2R,5S)-5-methyl-2-(propan-2-yl)cyclohexyl]oxy}carbonyl)oxy]ethoxy}carbonyl)bicyclo[3.1.0]hexane-6-carboxylic acid]
